Measurements as given in ChEMBL document CHEMBL1156238, “Allosteric inhibitors of hepatitis C virus NS5B polymerase thumb domain site II: structure-based design and synthesis of new templates” (Bioorg Med Chem, 2010).
The source made the active and inactive calls. The calls are words filed in the database; no cut-off is given here.

How the values were obtained:
Hepatitis C virus [1] = assay: Antiviral activity against Hepatitis C virus H2B2; type: functional, organism-based, Hepacivirus hominis
[2] = Selectivity index, ratio of CC50 for human HBI10A cells to EC50 for Hepatitis C virus; type: toxicity, cell-based; settings: read-out: Ratio CC50/EC50
Hepatitis C virus [3] = assay: Antiviral activity against HCV infected in human HBI10A cells; type: functional, organism-based, Hepacivirus hominis
[4] = Cytotoxicity against human HBI10A cells; type: cell-based
Hepatitis C virus [5] = assay: Inhibition of HCV genotype 1b NS5B polymerase deltaC21 mutant; type: functional, Hepatitis C virus subtype 1b
[6] = Inhibition of HCV genotype 2b NS5B polymerase deltaC21 mutant; design: species or system Hepatitis C virus subtype 2b
Hepatitis C virus [7] = assay: Antiviral activity against Hepatitis C virus at 20 uM; settings: Hepacivirus hominis
Hepatitis C virus [8] = assay: Inhibition of HCV genotype 1b NS5B polymerase deltaC21 mutant at 50 uM; type: functional; settings: Hepatitis C virus subtype 1b
Hepatitis C virus [9] = assay: Inhibition of HCV genotype 1b NS5B polymerase deltaC21 M423K mutant at 50 uM; type: functional; settings: Hepatitis C virus subtype 1b
Hepatitis C virus [10] = assay: Inhibition of HCV genotype 1b NS5B polymerase deltaC21 M423K mutant at 2 uM; type: functional; settings: Hepatitis C virus subtype 1b
Hepatitis C virus [11] = assay: Inhibition of HCV genotype 1b NS5B polymerase deltaC21 M423K mutant; type: functional, Hepatitis C virus subtype 1b
[12] = Cytotoxicity against human HBI10A cells at 20 uM; type: cell-based
[13] = Hepatitis C virus, H2B2, read-out: EC50

SMILES | EC50 (Hepatitis C virus [1]; [13]) [µM] | selectivity ratio [2] | EC50 (Hepatitis C virus [3]) [µM] | CC50 ([4]; HBI10A cells, read-out: CC50) [µM] | IC50 (Hepatitis C virus [5]; read-out: IC50) [µM] | IC50 [6] [µM] | further results
O=c1c2ccc(N[C@H]3CC[C@@H](C(=O)O)CC3)c3c2n(c(=O)n1-c1cccc(Cl)c1)CCC3 | 17 | > 7.8 | 13 | > 100 | 1.1 | 0.49 | –
Cc1c(NCCO)ccc2c(=O)n(-c3cccc(Cl)c3)c(=O)n(C)c12 | > 100 | > 2.5 | 40 | > 100 | 2.4 | 5.3 | –
O=C1c2cccc3c(NC4CCN(Cc5ccccc5)CC4)ccc(c23)C(=O)N1c1cccc(Br)c1 | 1.7 | 2.4 | 2.2 | 5.2 | < 0.014 | 0.043 | –
C=C[C@H]1CN2CC[C@H]1C[C@H]2[C@H](O)c1ccnc2ccc(OC)cc12 | – | – | – | – | – | – | inhibition (Hepatitis C virus [7]): inactive; inhibition (Hepatitis C virus [8]): inactive; inhibition (Hepatitis C virus [9]): inactive
O=c1c2ccc(NCCO)cc2n2ccnc2n1-c1cccc(Cl)c1 | – | – | > 100 | – | > 10 | > 10 | EC50 (Hepatitis C virus [1]): Not Active; CC50 ([4]; hbi10a): Not Active
O=c1[nH]c2cc(NCCO)ccc2c(=O)n1-c1cccc(Cl)c1 | > 100 | – | > 100 | > 100 | 5.5 | > 50 | –
CC1CCC(Nc2ccc3c(=O)n(-c4cccc(Cl)c4)c(=O)n(C)c3c2)CC1 (stereo unspecified) | 16 | 1.6 | 22 | 36 | 5.2 | 2.3 | –
O=C(O)c1cccc(CN2CCn3c(=O)n(-c4cccc(Cl)c4)c(=O)c4cccc2c43)c1 | > 100 | > 3.7 | 27 | > 100 | 0.13 | 2 | –
O=c1c2cccc3c2n(c(=O)n1-c1cccc(Cl)c1)CCN3CCCO | > 100 | – | < 100 | – | 5.2 | 7.7 | CC50 ([4]; hbi10a): Not Active
O=C1c2cccc3c(NCCO)ccc(c23)C(=O)N1c1cccc(Br)c1 | 18 | – | – | 68 | 0.02 | 0.18 | inhibition (Hepatitis C virus [10]): inactive
CC[n+]1c(-c2ccccc2)c2cc(N)ccc2c2ccc(N)cc21 [HOMIDIUM BROMIDE] | – | 0.85 | – | 0.7 | 0.81 | – | IC50 (Hepatitis C virus [11]): 3.8 µM
Cn1c(=O)n(-c2cccc(Cl)c2)c(=O)c2ccc(NCCO)cc21 | > 100 | – | 40 | > 100 | 2 | 8.2 | –
Cc1c(NC2CCN(Cc3ccccc3)CC2)ccc2c(=O)n(-c3cccc(Cl)c3)c3nncn3c12 | < 100 | 3 | 3 | 9 | 6.6 | 0.4 | –
O=C(NC1CCN(Cc2ccccc2)CC1)c1cccc2c(=O)n(-c3cccc(Cl)c3)c(=O)[nH]c12 | 6.6 | 1.8 | 4 | 7 | 0.076 | 0.73 | –
CC(C)CNc1ccc2c(=O)n(-c3cccc(Cl)c3)c(=O)n(C)c2c1 | > 100 | > 4 | 24 | > 100 | 3 | 5 | –
Cn1c(=O)n(-c2cccc(Cl)c2)c(=O)c2ccc(NC3CCN(Cc4ccccc4)CC3)cc21 | > 25 | 0.9 | 11 | 9.9 | 0.075 | 1.3 | –
O=c1c2ccc(NC3CCN(Cc4ccccc4)CC3)c3c2n(c(=O)n1-c1cccc(Cl)c1)CCC3 | 4.9 | 5.9 | 1.7 | 10 | 0.008 | 0.14 | –
O=c1c2ccc(NC3CCN(Cc4ccccc4)CC3)cc2n2ccnc2n1-c1cccc(Cl)c1 | 2.6 | 0.9 | 3.7 | 3.2 | 0.84 | > 5 | –
O=C(O)c1cc(Cl)cc(-n2c(=O)c3ccc(NC4CCN(Cc5ccccc5)CC4)c4c3n(c2=O)CCC4)c1 | 20 | 10 | 4.1 | 42 | 0.16 | 0.72 | –
O=c1c2ccc(NCCO)c3c2n(c(=O)n1-c1cccc(Cl)c1)CCC3 | 26 | 0.8 | 15 | 12 | 0.2 | 0.67 | –
Cc1c(NCCO)ccc2c(=O)n(-c3cccc(Cl)c3)c3nncn3c12 | – | – | 14 | – | 0.38 | 5.3 | EC50 (Hepatitis C virus [1]): Not Active; CC50 ([4]; hbi10a): Not Active
C=C[C@H]1C[N@@]2CC[C@H]1C[C@H]2[C@H](O)c1ccnc2ccc(OC)cc12 [QUININE] | – | – | – | – | – | – | inhibition (INH) [12]: Not Active
COc1cccc2c1C(=O)c1c(O)c3c(c(O)c1C2=O)C[C@@](O)(C(=O)CO)C[C@@H]3O[C@H]1C[C@H](N)[C@H](O)[C@H](C)O1 [DOXORUBICIN] | – | < 1 | – | < 0.3 | – | – | IC50 (Hepatitis C virus [11]): 12 µM; IC50 (Hepatitis C virus [5]): 2.6 µM
O=C(NCCO)c1cccc2c(=O)n(-c3cccc(Cl)c3)c(=O)[nH]c12 | – | – | < 100 | – | > 10 | > 10 | EC50 (Hepatitis C virus [1]): Not Active; CC50 ([4]; hbi10a): Not Active
O=C1c2cccc3c(NCCO)ccc(c23)C(=O)N1c1cccc(Cl)c1 | 35 | 6.8 | 8.4 | 57 | 0.039 | 0.21 | –
